The values below come from patent US12419307B2, “Mixtures comprising indazole pesticides” (FMC Corporation, priority 2019, dated 2025).

What all share (type): in vivo
For assay [1], the system named is diamondback moth (Plutella xylostella L.). As to the kind of experiment: Test E: diamondback moth control on mustard plants, contact and/or systemic, plant damage rating after 6 days. On the procedure:
(§1) The pest control protection afforded by the mixtures or compositions is not limited, however, to these species. The analysis of enhanced activity between the mixtures or compositions was determined using Colby's equation. The average % mortality data for the test compounds alone were inserted into the Colby's equation. If the observed (obs) average % mortality was higher than “p”, the expected (exp) % mortality, the mixture or composition had enhanced effects. If the observed average % mortality was equal to or lower than the expected mortality, the mixture or composition either had no enhanced effect. For bioassays where insect feeding damage was evaluated, enhanced activity is identified when the observed plant damage is less than the expected plant damage rating; ratings ranged between 0 (no damage) and 10 (dead plant) and each value was converted to a % plant protection. 100−(Obs Plant Damage*10)
For evaluating control of diamondback moth (Plutella xylostella L.) through contact and/or systemic means, each test unit consisted of a small open container with a 10- to 12-day-old mustard plant inside. Test compounds were formulated and sprayed with 3 replications as described for Test A. After spraying, the test units were allowed to dry for 1 hour before they were infested with 30-50 neonate larvae. A black, screened cap was placed on the top of each container. The test units were held for 6 days in a growth chamber at 24-25° C. and 70% relative humidity. Each test unit was then visually assessed for plant damage and rated 0-10, where 0=undamaged and 10=plant is dead; the results are listed in Tables 6a-b.

In assay [2] the test system is cotton melon aphid (Aphis gossypii Glover). Briefly: Test D: cotton melon aphid control on okra plants, insect mortality after 6 days. The following applies: Aphis gossypii, read-out: % Mortality (obs). As for the experimental part:
The analysis of enhanced activity between the mixtures or compositions was determined using Colby's equation. The average % mortality data for the test compounds alone were inserted into the Colby's equation. If the observed (obs) average % mortality was higher than “p”, the expected (exp) % mortality, the mixture or composition had enhanced effects. If the observed average % mortality was equal to or lower than the expected mortality, the mixture or composition either had no enhanced effect. For bioassays where insect feeding damage was evaluated, enhanced activity is identified when the observed plant damage is less than the expected plant damage rating; ratings ranged between 0 (no damage) and 10 (dead plant) and each value was converted to a % plant protection. 100−(Obs Plant Damage*10)
For evaluating control of cotton melon aphid (Aphis gossypii Glover) through contact and/or systemic means, each test unit consisted of a small open container with a 6- to 7-day-old okra plant inside. This was pre-infested by placing on a leaf of the test plant 30 to 40 aphids on a piece of leaf excised from a culture plant (cut-leaf method). The […] moved onto the test plant as the leaf piece desiccated. After pre-infestation, the soil of the test unit was covered with a layer of sand.
Test compounds were formulated and sprayed as described for Test A. The applications were replicated three times. After spraying of the formulated test compounds, each test unit was allowed to dry for 1 hour and then a black, screened cap was placed on top. […]

Assay [3] relates to Western Flower Thrips (Frankliniella occidentalis Pergande). As to the kind of experiment: Test B: Western Flower Thrips control on bean plants, plant damage rating converted to % plant protection after 7 days. The following applies: for Plant Damage (obs): Table 3a; for Plant Damage (obs) / Plant Protection (obs): applied alone; for Plant Protection (obs): Table 3c. On the procedure: as §1
Thus, a plant given a plant damage rating of 3 out of 10 is equivalent to 70% plant protection In all of these tests, compounds of Formula I are Compounds 1 (Cpd 1), 2 (Cpd2), and 3 (Cpd3) and compounds of Formula II are compounds 4 (Cpd4) and 5 (Cpd 5).
For evaluating control of the Western Flower Thrips (Frankliniella occidentalis Pergande) through contact and/or systemic means, each test unit consisted of a small open container with a 5- to 7-day-old bean (var. Soleil) plant inside.
Test solutions were formulated and sprayed with 3 replications as described for Test A. After spraying, the test units were allowed to dry for 1 hour, 22 to 27 adult thrips were added to each unit and then a black, screened cap was placed on top. The test units were held for 7 days at 25° C. and 45-55% relative humidity. To evaluate the level of plant protection provided by each treatment, each test unit was then visually assessed for plant damage inflicted by insect feeding and rated 0-10, where 0=undamaged and 10=plant is dead; the results are listed in Tables 3a-g.

Assay [4] relates to silverleaf whitefly (Bemisia argentifolii Bellows and Perring). Briefly: Test A: silverleaf whitefly control on cotton or soybean plants, spray, insect mortality after 13 days. The settings on record: Bemisia argentifolii, read-out: % Mortality (obs). On the procedure:
as §1
For evaluating control of silverleaf whitefly (Bemisia argentifolii Bellows and Perring) through contact and/or systemic means, each test unit consisted of a small open container with a 12- to 14-day-old cotton plant or 5-7 day old soybean plant inside. This was pre-infested by placing test units into cages containing adult whiteflies so that oviposition on the cotton leaves could occur. The adults were removed from the plants with an air-blast nozzle, and the test units were capped. The test units were then stored 2 to 3 days before spraying.
Test compounds were formulated using a solution containing 10% acetone, 90% water and 300 ppm Activator 90@ Spreader Lo-Foam Formula non-ionic surfactant containing alkylarylpolyoxyethylene, free fatty acids, glycols and 2-propanol (Loveland Industries, Inc.) to provide the desired concentration in ppm. Formulated test solutions were then applied in 1 mL volumes through a SUJ2 atomizer nozzle with ⅛ JJ custom body (Spraying Systems Co.) positioned 1.27 cm (0.5 inches) above the top of each test unit.
The results for all experimental compositions in this test were replicated three times. After spraying of the formulated test composition, each test unit was allowed to dry for 1 hour and the cap removed. The test units were held for 13 days in a growth chamber at 28° C. and 50-70% relative humidity.

Assay [5] has as its system Potato Leafhopper (Empoasca fabae Harris). Briefly: Test C: Potato Leafhopper control on bean plants, insect mortality after 6 days. The following applies: read-out: % Mortality (obs). On the procedure: as §1
For evaluating control of Potato Leafhopper (Empoasca fabae Harris) through contact and/or systemic means, each test unit consisted of a small open container with a 5- to 6-day-old Longio bean plant (primary leaves emerged) inside. White sand was added to the top of the soil, and one of the primary leaves was excised prior to application. Test compounds were formulated and sprayed with 3 replications as described for Test A. After spraying, the test units were allowed to dry for 1 hour before they were infested with 5 potato leafhoppers (18- to 21-day-old adults). A black, screened cap was placed on the top of each container. The test units were held for 6 days in a growth chamber at 19-21° C. and 50-70% relative humidity.

Assay [6] concerns corn planthopper (Peregrinus maidis (Ashmead)). As to the kind of experiment: Test C: corn planthopper control on corn plants, insect mortality after 6 days. The settings on record: Peregrinus maidis, 96 h, read-out: % Mortality (obs). On the procedure: as §1
For evaluating control of corn planthopper (Peregrinus maidis (Ashmead)) through contact and/or systemic means, the test unit consisted of a small open container with a 3-4-day-old corn (maize) plant inside. White sand was added to the top of the soil prior to application of the test compound.
Test compounds were formulated and sprayed at 250 and/or 50 ppm and/or 10 ppm. After spraying of the formulated test compound, the test units were allowed to dry for 1 h before they were post-infested with ˜15-20 nymphs (18-to-21-day-old). […]

Take `CNC(=O)c1cc(C#N)cc(C)c1NC(=O)c1cc(Br)nn1-c1ncccc1Cl` [Cyantraniliprole, 3-bromo-1-(3-chloro-2-pyridinyl)-N-[4-cyano-2-methyl-6-[(methylamino)carbonyl]phenyl]-1H-pyrazole-5-carboxamide, reference compound]: in assay [1] (Table 6a, 0.013 ppm), the “Plant Protection (obs)” value stood at 73.3. Moreover, the “Plant Protection (obs)” value in assay [1] (Table 6a, 0.02 ppm) is recorded as 20.0. Moreover, in assay [2], the mortality at 0.06 ppm came to 21.1% and the mortality at 0.12 ppm came to 45.1%. Also, the “Plant Damage (obs)” value in assay [3] (0.08 ppm) is given as 6.7%. Besides, the “Plant Damage (obs)” value in assay [3] (0.28 ppm) is 43.3%. Further, in assay [4], the mortality at 3 ppm turned out to be 29.1% and the mortality at 5.5 ppm came to 61.1%. Also, in assay [5], the mortality at 1.75 ppm amounted to 13.3% and the mortality at 3.3 ppm amounted to 28.6%.
Regarding `CCOC(=O)OC1=C(c2cc(C)ccc2C)C(=O)N[C@]12CC[C@@H](OC)CC2` [Spirotetramat, spirotetramat, reference compound], the “Plant Protection (obs)” value was 73.3 in assay [1] (Table 6b, 83.2 ppm) and 80.0 in assay [1] (Table 6b, 150 ppm). Further, the mortality at 0.25 ppm in assay [2] (120 h) came out at 21.1%. In addition, in assay [2] (120 h), the mortality at 0.85 ppm was found to be 45.1%. For the same compound, the pest or weed control at 100 ppm in assay [3] (Frankliniella occidentalis, 168 h, Table 3d, 100 ppm, read-out: Plant Protection (obs)) was found to be 53.3%. In assay [3] (Frankliniella occidentalis, 168 h, Table 3d, 250 ppm, read-out: Plant Protection (obs)), the pest or weed control at 250 ppm came to 73.3%. In addition, the mortality at 50 ppm was 2.1% in assay [4] and 28.6% in assay [5]. Besides, the mortality at 250 ppm in assay [4] turned out to be 34.4%; in assay [5], 73.3%.
In the case of `O=[N+]([O-])NC1=NCCN1Cc1ccc(Cl)nc1` [Imidacloprid, imidacloprid, reference compound], in assay [2], the mortality at 0.05 ppm was 33.3% and the mortality at 0.1 ppm came to 6.7%. Also, the “Plant Protection (obs)” value in assay [3] (6.4 ppm) is 66.7%. In addition, the “Plant Protection (obs)” value in assay [3] (10.9 ppm) worked out at 86.7%. In assay [4], the mortality at 15.1 ppm came to 0% and the mortality at 21.15 ppm stood at 24.7%. In assay [5], the mortality at 0.82 ppm amounted to 53.3% and the mortality at 2.25 ppm turned out to be 40%. Further, in assay [6], the mortality at 0.09 ppm came out at 29.2% and the mortality at 0.16 ppm is 20%.
